Results taken from patent US12723063B2, “GIPR-agonist compounds” (Eli Lilly and Company, priority 2019, dated 2026).
*1 amine or outer side, *2 acyl side, *3 side chain or, on linkers, in order; H or OH if unused. Where a SMILES comes first, the peptide text is derived from it. Side-chain parts run from the residue outwards. [ ]: non-standard residue; d: D form. The star is where a group is joined. C20 diacid = O=C(O)CCCCCCCCCCCCCCCCCCC(=O)*; C18 diacid = O=C(O)CCCCCCCCCCCCCCCCC(=O)*; αMePhe(2-F) = C[C@](N)(Cc1ccccc1F)C(=O)O; γGlu = O=C(O)[C@H](CCC(=O)[*:2])N[*:1]; 4Pal = N[C@@H](Cc1ccncc1)C(=O)O; αMeL = CC(C)C[C@](C)(N)C(=O)O; Orn = NCCC[C@H](N)C(=O)O; AEEA = NCCOCCOCC(=O)O; Aib = CC(C)(N)C(=O)O

How the values were obtained:
human GLP-1R = biological target: T1, human GLP-1R (Homo sapiens, UniProt P43220); assay: [125I]-GLP-1 binding, SPA with WGA beads, 0.1% bacitracin; settings: geometric mean, read-out: hGLP1R Ki
T1 construct: expressed in transfected cells; crude membranes
T1 sequence (P43220 24-463): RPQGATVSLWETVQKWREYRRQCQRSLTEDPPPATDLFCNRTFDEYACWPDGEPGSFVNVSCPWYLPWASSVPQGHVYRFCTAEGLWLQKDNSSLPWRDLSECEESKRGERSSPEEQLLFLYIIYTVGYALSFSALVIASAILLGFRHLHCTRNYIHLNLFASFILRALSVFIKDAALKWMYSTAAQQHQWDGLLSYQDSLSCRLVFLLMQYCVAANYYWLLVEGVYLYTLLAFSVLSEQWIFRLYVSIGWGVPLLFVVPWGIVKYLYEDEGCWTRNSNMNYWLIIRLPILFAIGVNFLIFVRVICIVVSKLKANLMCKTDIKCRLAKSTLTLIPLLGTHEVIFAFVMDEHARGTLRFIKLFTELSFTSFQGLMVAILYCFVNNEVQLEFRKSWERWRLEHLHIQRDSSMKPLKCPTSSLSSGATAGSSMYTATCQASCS
In short: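 Binding buffer was 25 mM HEPES pH 7.4 with 2.5 mM CaCl2, 1 mM MgCl2, 0.1% (w/v) bacitracin, 0.003% Tween-20 and EDTA-free protease inhibitors. Four-parameter regression gave IC50, converted to Ki (geometric mean, SEM, n independent days).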

[1] = Pharmacokinetics in male cynomolgus monkeys, single subcutaneous administration; type: in vivo, cynomolgus monkey; settings: 50 nmol/kg single SC, mean n = 2
Method: The pharmacokinetics of select Examples are evaluated following a single subcutaneous administration of 50 nmol/kg to male cynomolgus monkeys. Blood samples are collected over 504 hours and resulting individual plasma concentrations are used to calculate pharmacokinetic parameters. Peptide plasma (K3 EDTA) concentrations are determined using a qualified LC/MS method that measured the intact mass of the compound. Each peptide and an analog as an internal standard are extracted from 100% cynomolgus monkey plasma using a protein precipitation method. Instruments are combined for LC/MS detection.

CC[C@H](C)[C@H](NC(=O)[C@H](Cc1ccccc1)NC(=O)[C@@H](NC(=O)CNC(=O)[C@H](CCC(=O)O)NC(=O)C(C)(C)NC(=O)[C@@H](N)Cc1ccc(O)cc1)[C@@H](C)O)C(=O)N[C@@H](CO)C(=O)N[C@@H](CC(=O)O)C(=O)N[C@@H](Cc1ccc(O)cc1)C(=O)N[C@@H](CO)C(=O)N[C@H](C(=O)N[C@@](C)(CC(C)C)C(=O)N[C@@H](CC(C)C)C(=O)N[C@@H](CC(=O)O)C(=O)N[C@@H](CCCN)C(=O)N[C@@H](CCCCNC(=O)COCCOCCNC(=O)COCCOCCNC(=O)CC[C@H](NC(=O)CCCCCCCCCCCCCCCCCCC(=O)O)C(=O)O)C(=O)N[C@@H](Cc1c[nH]cn1)C(=O)N[C@@H](CCC(N)=O)C(=O)NC(C)(C)C(=O)N[C@@H](CC(=O)O)C(=O)N[C@@H](Cc1ccccc1)C(=O)N[C@H](C(=O)N[C@@H](CCC(=O)O)C(=O)N[C@@H](Cc1ccncc1)C(=O)N[C@@H](CC(C)C)C(=O)N[C@@H](CC(C)C)C(=O)N[C@@H](CCC(=O)O)C(=O)N[C@@H](C)C(=O)NCC(=O)N1CCC[C@H]1C(=O)N[C@@H](CO)C(=O)N[C@@H](CO)C(=O)NCC(=O)N[C@@H](C)C(=O)N1CCC[C@H]1C(=O)N1CCC[C@H]1C(=O)N1CCC[C@H]1C(=O)N[C@@H](CO)C(N)=O)C(C)C)[C@@H](C)CC [Example 4]
Ki (human GLP-1R): 423 nM | AUCInf/Dose [1]: 1387 hr*kg*nmol/L/nmol | Cmax/Dose [1]: 8.71 kg*nmol/L/nmol | CL/F ([1]; cynomolgus monkey, plasma): 17.3 mL/day/kg | Tmax ([1]; cynomolgus monkey, plasma): 6 h | half-life ([1]; cynomolgus monkey, plasma): 124 h

CC[C@H](C)[C@H](NC(=O)[C@H](Cc1ccccc1)NC(=O)[C@@H](NC(=O)CNC(=O)[C@H](CCC(=O)O)NC(=O)C(C)(C)NC(=O)[C@@H](N)Cc1ccc(O)cc1)[C@@H](C)O)C(=O)N[C@@H](CO)C(=O)N[C@@H](CC(=O)O)C(=O)N[C@@H](Cc1ccc(O)cc1)C(=O)N[C@@H](CO)C(=O)N[C@H](C(=O)N[C@@](C)(CC(C)C)C(=O)N[C@@H](CC(C)C)C(=O)N[C@@H](CC(=O)O)C(=O)N[C@@H](CCCN)C(=O)N[C@@H](CCCCNC(=O)COCCOCCNC(=O)COCCOCCNC(=O)CC[C@H](NC(=O)CCCCCCCCCCCCCCCCC(=O)O)C(=O)O)C(=O)N[C@@H](Cc1c[nH]cn1)C(=O)N[C@@H](CCC(N)=O)C(=O)NC(C)(C)C(=O)N[C@@H](CC(=O)O)C(=O)N[C@@H](Cc1ccccc1)C(=O)N[C@H](C(=O)N[C@@H](CCC(=O)O)C(=O)N[C@@H](Cc1ccncc1)C(=O)N[C@@H](CC(C)C)C(=O)N[C@@H](CC(C)C)C(=O)N[C@@H](CCC(=O)O)C(=O)N[C@@H](C)C(=O)NCC(=O)N1CCC[C@H]1C(=O)N[C@@H](CO)C(=O)N[C@@H](CO)C(=O)NCC(=O)N[C@@H](C)C(=O)N1CCC[C@H]1C(=O)N1CCC[C@H]1C(=O)N1CCC[C@H]1C(=O)N[C@@H](CO)C(N)=O)C(C)C)[C@@H](C)CC [Example 87] (H-Y[Aib]EGTFISDYSI[αMeL]LD[Orn]K([AEEA-AEEA-γGlu-C18 diacid])HQ[Aib]DFVE[4Pal]LLEAGPSSGAPPPS-NH2)
Ki (human GLP-1R): 849 nM

CC[C@H](C)[C@H](NC(=O)[C@H](CCCN)NC(=O)[C@H](CC(=O)O)NC(=O)[C@H](CC(C)C)NC(=O)[C@](C)(CC(C)C)NC(=O)[C@@H](NC(=O)[C@H](CO)NC(=O)[C@H](Cc1ccc(O)cc1)NC(=O)[C@H](CC(=O)O)NC(=O)[C@H](CO)NC(=O)[C@@H](NC(=O)[C@H](Cc1ccccc1)NC(=O)[C@@H](NC(=O)CNC(=O)[C@H](CCC(=O)O)NC(=O)C(C)(C)NC(=O)[C@@H](N)Cc1ccc(O)cc1)[C@@H](C)O)[C@@H](C)CC)[C@@H](C)CC)C(=O)N[C@@H](Cc1c[nH]cn1)C(=O)N[C@@H](CCC(N)=O)C(=O)NC(C)(C)C(=O)N[C@@H](CCC(=O)O)C(=O)N[C@@H](Cc1ccccc1)C(=O)N[C@H](C(=O)N[C@@H](CCC(=O)O)C(=O)N[C@@H](Cc1ccc(O)cc1)C(=O)N[C@@H](CCCCNC(=O)COCCOCCNC(=O)COCCOCCNC(=O)CC[C@H](NC(=O)CCCCCCCCCCCCCCCCCCC(=O)O)C(=O)O)C(=O)N[C@@H](CC(C)C)C(=O)N[C@@H](CCC(=O)O)C(=O)NCC(=O)NCC(=O)N1CCC[C@H]1C(=O)N[C@@H](CO)C(=O)N[C@@H](CO)C(=O)NCC(=O)N[C@@H](C)C(=O)N1CCC[C@H]1C(=O)N1CCC[C@H]1C(=O)N1CCC[C@H]1C(=O)N[C@@H](CO)C(N)=O)C(C)C [Example 107] (H-Y[Aib]EGTFISDYSI[αMeL]LD[Orn]IHQ[Aib]EFVEYK([AEEA-AEEA-γGlu-C20 diacid])LEGGPSSGAPPPS-NH2)
Ki (human GLP-1R): > 911 nM

CC[C@H](C)[C@H](NC(=O)[C@H](CCCN)NC(=O)[C@H](CC(=O)O)NC(=O)[C@H](CC(C)C)NC(=O)[C@](C)(CC(C)C)NC(=O)[C@@H](NC(=O)[C@H](CO)NC(=O)[C@H](Cc1ccc(O)cc1)NC(=O)[C@H](CC(=O)O)NC(=O)[C@H](CO)NC(=O)[C@@H](NC(=O)[C@H](Cc1ccccc1)NC(=O)[C@@H](NC(=O)CNC(=O)[C@H](CCC(=O)O)NC(=O)C(C)(C)NC(=O)[C@@H](N)Cc1ccc(O)cc1)[C@@H](C)O)[C@@H](C)CC)[C@@H](C)CC)C(=O)N[C@@H](CCCNC(=N)N)C(=O)N[C@@H](CCC(N)=O)C(=O)NC(C)(C)C(=O)N[C@@H](CC(=O)O)C(=O)N[C@@H](Cc1ccccc1)C(=O)N[C@H](C(=O)N[C@@H](CCC(=O)O)C(=O)N[C@@H](Cc1ccc(O)cc1)C(=O)N[C@@H](CCCCNC(=O)COCCOCCNC(=O)COCCOCCNC(=O)CC[C@H](NC(=O)CCCCCCCCCCCCCCCCCCC(=O)O)C(=O)O)C(=O)N[C@@H](CC(C)C)C(=O)N[C@@H](CCC(=O)O)C(=O)NCC(=O)NCC(=O)N1CCC[C@H]1C(=O)N[C@@H](CO)C(=O)N[C@@H](CO)C(=O)NCC(=O)N[C@@H](C)C(=O)N1CCC[C@H]1C(=O)N1CCC[C@H]1C(=O)N1CCC[C@H]1C(=O)N[C@@H](CO)C(N)=O)C(C)C [Example 116] (H-Y[Aib]EGTFISDYSI[αMeL]LD[Orn]IRQ[Aib]DFVEYK([AEEA-AEEA-γGlu-C20 diacid])LEGGPSSGAPPPS-NH2)
Ki (human GLP-1R): > 912 nM

CC[C@H](C)[C@H](NC(=O)[C@H](CO)NC(=O)[C@H](Cc1ccc(O)cc1)NC(=O)[C@H](CC(=O)O)NC(=O)[C@H](CO)NC(=O)[C@@H](NC(=O)[C@](C)(Cc1ccccc1F)NC(=O)[C@@H](NC(=O)CNC(=O)[C@H](CCC(=O)O)NC(=O)C(C)(C)NC(=O)[C@@H](N)Cc1ccc(O)cc1)[C@@H](C)O)[C@@H](C)CC)C(=O)N[C@@H](C)C(=O)N[C@@H](CC(C)C)C(=O)N[C@@H](CC(=O)O)C(=O)N[C@@H](CCCCN)C(=O)N[C@H](C(=O)N[C@@H](Cc1c[nH]cn1)C(=O)N[C@@H](CCC(N)=O)C(=O)NC(C)(C)C(=O)N[C@@H](CC(=O)O)C(=O)N[C@@H](Cc1ccccc1)C(=O)N[C@H](C(=O)N[C@@H](CCC(=O)O)C(=O)N[C@@H](Cc1ccncc1)C(=O)N[C@@H](CCCCNC(=O)COCCOCCNC(=O)COCCOCCNC(=O)CC[C@H](NC(=O)CCCCCCCCCCCCCCCCCCC(=O)O)C(=O)O)C(=O)N[C@@H](CC(C)C)C(=O)N[C@@H](CCC(=O)O)C(=O)NCC(=O)NCC(=O)N1CCC[C@H]1C(=O)N[C@@H](CO)C(=O)N[C@@H](CO)C(=O)NCC(=O)N[C@@H](C)C(=O)N1CCC[C@H]1C(=O)N1CCC[C@H]1C(=O)N1CCC[C@H]1C(=O)N[C@@H](CO)C(N)=O)C(C)C)[C@@H](C)CC [Example 112] (H-Y[Aib]EGT[αMePhe(2-F)]ISDYSIALDKIHQ[Aib]DFVE[4Pal]K([AEEA-AEEA-γGlu-C20 diacid])LEGGPSSGAPPPS-NH2)
Ki (human GLP-1R): > 908 nM

CC[C@H](C)[C@H](NC(=O)[C@H](CO)NC(=O)[C@H](Cc1ccc(O)cc1)NC(=O)[C@H](CC(=O)O)NC(=O)[C@H](CO)NC(=O)[C@@H](NC(=O)[C@](C)(Cc1ccccc1F)NC(=O)[C@@H](NC(=O)CNC(=O)[C@H](CCC(=O)O)NC(=O)C(C)(C)NC(=O)[C@@H](N)Cc1ccc(O)cc1)[C@@H](C)O)[C@@H](C)CC)C(=O)N[C@@H](C)C(=O)N[C@@H](CC(C)C)C(=O)N[C@@H](CC(=O)O)C(=O)N[C@@H](CCCCN)C(=O)N[C@H](C(=O)N[C@@H](Cc1c[nH]cn1)C(=O)N[C@@H](CCC(N)=O)C(=O)NC(C)(C)C(=O)N[C@@H](CCC(=O)O)C(=O)N[C@@H](Cc1ccccc1)C(=O)N[C@H](C(=O)N[C@@H](CC(N)=O)C(=O)N[C@@H](Cc1ccc(O)cc1)C(=O)N[C@@H](CCCCNC(=O)COCCOCCNC(=O)COCCOCCNC(=O)CC[C@H](NC(=O)CCCCCCCCCCCCCCCCCCC(=O)O)C(=O)O)C(=O)N[C@@H](CC(C)C)C(=O)N[C@@H](CCC(=O)O)C(=O)NCC(=O)NCC(=O)N1CCC[C@H]1C(=O)N[C@@H](CO)C(=O)N[C@@H](CO)C(=O)NCC(=O)N[C@@H](C)C(=O)N1CCC[C@H]1C(=O)N1CCC[C@H]1C(=O)N1CCC[C@H]1C(=O)N[C@@H](CO)C(N)=O)C(C)C)[C@@H](C)CC [Example 95] (H-Y[Aib]EGT[αMePhe(2-F)]ISDYSIALDKIHQ[Aib]EFVNYK([AEEA-AEEA-γGlu-C20 diacid])LEGGPSSGAPPPS-NH2)
Ki (human GLP-1R): 832 nM
